Test results published in patent US12637687B2, “Nucleic acid molecules, polypeptides having epoxy group-removing catalytic activity and use thereof” (SHANDONG AGRICULTURAL UNIVERSITY, priority 2020, dated 2026).

B1: ThFhb7: de-epoxidase from Thinopyrum ponticum; polypeptide having epoxy group-removing catalytic activity, amino acid sequence SEQ ID NO: 36, gene SEQ ID NO: 1 (protein, listed as Elytrigia ponticum)
chain: MATSASTSTPIIPTAIAGAPPVAGTCCAVAPTLSALALAPLAVPTTTTTVLMPAISSVAASLAVPACALPAAGSAPATLPIIHAPATASLVGASPAIAATLGATTPASGAGALPPPGLLATAVGAAMPGLLIPLSGIAASPGLAATAAPASAVAAAPTAHVGLMVHGLPLAPATAAVTLAGPVAAAGLSSTAALGMVGGAAALMMGSLAAMLGALAALPALAASGPPLLGGAATTAAMIVGGTLAMMAATLPVSGTGGAAACHGAIPGGLHAALALTAGVL

Experiments:
Conditions in all cases: in vivo
ThFhb7 = test system: ThFhb7; design: species or system Thinopyrum ponticum
F. graminearum [1] = test system: F. graminearum
F. graminearum [2] = test system: F. graminearum; remark: listed apart in the source
F. graminearum [3] = test system: F. graminearum; remark: listed apart in the source

Molecule	conversion into glutathione adducts in transgenic wheat overexpressing ThFhb7 (ThFhb7)	number of diseased spikelets vs control receptor material (F. graminearum [1])	diseased spot area on leaves vs KN199 (F. graminearum [2])	disease spot area of ex-vivo leaves vs receptor material (F. graminearum [3])
CC(=O)OC[C@]12[C@H](O)C(=O)C(C)=C[C@H]1O[C@@H]1[C@H](O)C[C@@]2(C)[C@]12CO2 [15-ADON, 15-acetyl-deoxynivalenol]	efficiently catalyzed into glutathione adducts	–	–	–
CC1=C[C@H]2O[C@@H]3[C@H](O)C[C@](C)([C@@]2(CO)[C@H](O)C1=O)[C@]31CO1 [DON, deoxynivalenol]	efficiently catalyzed into glutathione adducts	–	–	–
CC1=C[C@H]2O[C@@H]3[C@H](O)[C@@H](O)[C@](C)([C@@]2(CO)[C@H](O)C1=O)[C@]31CO1 [NIV, nivalenol]	efficiently catalyzed into glutathione adducts	–	–	–
CC(=O)O[C@@H]1C[C@]2(C)[C@@]3(CO)[C@H](O)C(=O)C(C)=C[C@H]3O[C@H]1[C@@]21CO1 [3-ADON, 3-acetyl-deoxynivalenol]	efficiently catalyzed into glutathione adducts	–	–	–
B1	–	significantly less	significantly reduced	significantly reduced
